Values of other authors, collected in patent US11304902B2, “Pharmaceutical compositions, preparation and uses thereof” (CURADIGM SAS, priority 2014, dated 2022).
“Also recorded” adds a separate entry of the source.

How the values were obtained:
Settings in all cases: human CYP enzyme
CYP2C9 = CYP2C9 (Homo sapiens, UniProt P11712)
CYP1A1 = target: T1, CYP1A1 (Homo sapiens, UniProt P04798)
T1 sequence (P04798 1-512): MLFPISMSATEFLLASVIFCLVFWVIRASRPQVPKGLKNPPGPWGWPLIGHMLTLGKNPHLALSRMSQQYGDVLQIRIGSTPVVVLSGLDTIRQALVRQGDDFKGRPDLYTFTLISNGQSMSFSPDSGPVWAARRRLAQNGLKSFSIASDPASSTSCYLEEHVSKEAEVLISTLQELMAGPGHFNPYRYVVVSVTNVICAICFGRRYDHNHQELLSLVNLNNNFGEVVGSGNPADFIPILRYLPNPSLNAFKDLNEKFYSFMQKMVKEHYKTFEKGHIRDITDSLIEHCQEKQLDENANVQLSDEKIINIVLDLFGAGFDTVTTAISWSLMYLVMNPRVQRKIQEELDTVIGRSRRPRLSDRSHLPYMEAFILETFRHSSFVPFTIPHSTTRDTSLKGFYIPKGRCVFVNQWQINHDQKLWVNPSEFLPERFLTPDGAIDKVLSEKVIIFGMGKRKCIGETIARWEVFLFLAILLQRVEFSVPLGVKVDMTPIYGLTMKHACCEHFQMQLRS

CYP2A6 = target: T2, CYP2A6 (Homo sapiens, UniProt P11509)
T2 sequence (P11509 1-494): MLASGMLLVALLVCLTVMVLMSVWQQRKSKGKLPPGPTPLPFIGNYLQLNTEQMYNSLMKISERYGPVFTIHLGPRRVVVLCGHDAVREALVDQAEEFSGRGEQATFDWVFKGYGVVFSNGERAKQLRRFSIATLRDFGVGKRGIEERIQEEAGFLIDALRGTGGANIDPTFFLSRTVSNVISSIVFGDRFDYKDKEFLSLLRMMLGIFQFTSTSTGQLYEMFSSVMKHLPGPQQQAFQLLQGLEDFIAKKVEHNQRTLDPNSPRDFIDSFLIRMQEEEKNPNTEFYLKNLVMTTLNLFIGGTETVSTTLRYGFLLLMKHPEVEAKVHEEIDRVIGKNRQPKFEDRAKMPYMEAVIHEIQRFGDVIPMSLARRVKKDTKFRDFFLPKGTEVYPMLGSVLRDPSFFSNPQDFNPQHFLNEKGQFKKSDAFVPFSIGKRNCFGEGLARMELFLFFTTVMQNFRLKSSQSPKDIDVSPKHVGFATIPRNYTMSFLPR

CYP4F8 = target: T3, CYP4F8 (Homo sapiens, UniProt P98187)
T3 sequence (P98187 1-520): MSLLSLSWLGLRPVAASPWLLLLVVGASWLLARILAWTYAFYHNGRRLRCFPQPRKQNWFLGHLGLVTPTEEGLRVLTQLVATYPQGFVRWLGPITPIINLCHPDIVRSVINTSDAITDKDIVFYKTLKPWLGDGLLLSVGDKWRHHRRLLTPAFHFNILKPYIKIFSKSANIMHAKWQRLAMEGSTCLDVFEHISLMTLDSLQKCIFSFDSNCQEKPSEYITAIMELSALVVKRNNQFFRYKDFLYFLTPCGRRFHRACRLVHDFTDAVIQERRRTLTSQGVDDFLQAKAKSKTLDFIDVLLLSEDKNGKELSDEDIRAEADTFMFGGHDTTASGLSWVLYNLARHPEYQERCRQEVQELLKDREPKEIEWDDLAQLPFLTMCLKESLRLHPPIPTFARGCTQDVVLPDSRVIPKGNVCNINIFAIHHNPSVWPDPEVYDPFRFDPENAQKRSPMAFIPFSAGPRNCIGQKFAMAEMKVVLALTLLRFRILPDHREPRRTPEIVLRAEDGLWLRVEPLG

CYP3A4 = CYP3A4 (Homo sapiens, UniProt P08684)
CYP1A2 = target: T4, CYP1A2 (Homo sapiens, UniProt P05177)
T4 sequence (P05177 1-516): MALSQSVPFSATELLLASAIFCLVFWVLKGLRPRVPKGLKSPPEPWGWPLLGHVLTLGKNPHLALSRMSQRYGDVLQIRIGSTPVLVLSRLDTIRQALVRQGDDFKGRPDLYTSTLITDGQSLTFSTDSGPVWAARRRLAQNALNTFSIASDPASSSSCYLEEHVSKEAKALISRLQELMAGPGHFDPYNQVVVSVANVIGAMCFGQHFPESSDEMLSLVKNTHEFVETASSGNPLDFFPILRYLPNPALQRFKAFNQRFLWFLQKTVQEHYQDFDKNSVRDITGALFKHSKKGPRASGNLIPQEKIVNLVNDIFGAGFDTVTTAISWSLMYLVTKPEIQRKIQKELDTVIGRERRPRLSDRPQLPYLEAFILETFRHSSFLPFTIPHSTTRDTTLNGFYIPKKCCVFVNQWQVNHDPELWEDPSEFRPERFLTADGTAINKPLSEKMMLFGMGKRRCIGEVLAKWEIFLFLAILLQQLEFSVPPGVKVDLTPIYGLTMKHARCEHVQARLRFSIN

CYP4A11 = target: T5, CYP4A11 (Homo sapiens, UniProt Q02928)
T5 sequence (Q02928 5-519): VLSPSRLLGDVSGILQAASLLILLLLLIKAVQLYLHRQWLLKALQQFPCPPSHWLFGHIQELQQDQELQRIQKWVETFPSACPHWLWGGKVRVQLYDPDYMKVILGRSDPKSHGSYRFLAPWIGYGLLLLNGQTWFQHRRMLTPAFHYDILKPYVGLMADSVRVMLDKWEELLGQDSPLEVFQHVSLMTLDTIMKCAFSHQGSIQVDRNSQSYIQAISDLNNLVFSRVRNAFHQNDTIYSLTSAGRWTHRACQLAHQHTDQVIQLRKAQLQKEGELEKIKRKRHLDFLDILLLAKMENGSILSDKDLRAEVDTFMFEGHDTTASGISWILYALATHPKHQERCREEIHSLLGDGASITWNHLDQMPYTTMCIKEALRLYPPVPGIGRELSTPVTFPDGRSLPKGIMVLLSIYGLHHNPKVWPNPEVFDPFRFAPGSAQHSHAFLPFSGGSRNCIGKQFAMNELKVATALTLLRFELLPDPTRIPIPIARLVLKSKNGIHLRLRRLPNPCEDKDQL

CYP4B1 = CYP4B1 (Homo sapiens, UniProt P13584)
Chain of CYP4B1 (P13584 whole entry): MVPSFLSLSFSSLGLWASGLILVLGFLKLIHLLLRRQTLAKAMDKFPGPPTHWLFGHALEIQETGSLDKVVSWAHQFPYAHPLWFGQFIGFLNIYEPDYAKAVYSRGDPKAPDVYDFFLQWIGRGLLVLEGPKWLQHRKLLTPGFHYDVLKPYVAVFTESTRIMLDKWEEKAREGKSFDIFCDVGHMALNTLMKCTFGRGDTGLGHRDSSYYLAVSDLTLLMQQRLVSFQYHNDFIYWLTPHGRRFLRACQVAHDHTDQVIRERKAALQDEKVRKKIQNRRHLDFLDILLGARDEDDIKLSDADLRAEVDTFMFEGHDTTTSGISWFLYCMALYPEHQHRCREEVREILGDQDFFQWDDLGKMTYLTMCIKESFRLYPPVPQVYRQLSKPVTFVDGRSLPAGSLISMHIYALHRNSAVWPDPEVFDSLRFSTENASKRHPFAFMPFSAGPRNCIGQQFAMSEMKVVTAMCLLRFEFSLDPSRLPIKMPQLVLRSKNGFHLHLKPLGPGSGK

Chain of CYP2C9 (P11712 whole entry): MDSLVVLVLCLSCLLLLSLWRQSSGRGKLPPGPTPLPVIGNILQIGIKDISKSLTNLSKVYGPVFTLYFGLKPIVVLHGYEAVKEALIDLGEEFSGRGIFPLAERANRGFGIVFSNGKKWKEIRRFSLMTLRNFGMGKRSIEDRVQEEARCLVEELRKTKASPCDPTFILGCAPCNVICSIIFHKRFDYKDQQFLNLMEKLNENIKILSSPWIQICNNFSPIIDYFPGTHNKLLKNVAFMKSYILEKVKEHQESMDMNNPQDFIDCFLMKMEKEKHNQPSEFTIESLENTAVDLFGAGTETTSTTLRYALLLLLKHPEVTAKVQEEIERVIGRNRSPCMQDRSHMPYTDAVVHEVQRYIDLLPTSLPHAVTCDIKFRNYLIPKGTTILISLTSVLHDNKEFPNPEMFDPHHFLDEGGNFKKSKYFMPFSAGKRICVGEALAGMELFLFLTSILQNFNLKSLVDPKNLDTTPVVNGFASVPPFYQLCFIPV
Chain of CYP3A4 (P08684 whole entry): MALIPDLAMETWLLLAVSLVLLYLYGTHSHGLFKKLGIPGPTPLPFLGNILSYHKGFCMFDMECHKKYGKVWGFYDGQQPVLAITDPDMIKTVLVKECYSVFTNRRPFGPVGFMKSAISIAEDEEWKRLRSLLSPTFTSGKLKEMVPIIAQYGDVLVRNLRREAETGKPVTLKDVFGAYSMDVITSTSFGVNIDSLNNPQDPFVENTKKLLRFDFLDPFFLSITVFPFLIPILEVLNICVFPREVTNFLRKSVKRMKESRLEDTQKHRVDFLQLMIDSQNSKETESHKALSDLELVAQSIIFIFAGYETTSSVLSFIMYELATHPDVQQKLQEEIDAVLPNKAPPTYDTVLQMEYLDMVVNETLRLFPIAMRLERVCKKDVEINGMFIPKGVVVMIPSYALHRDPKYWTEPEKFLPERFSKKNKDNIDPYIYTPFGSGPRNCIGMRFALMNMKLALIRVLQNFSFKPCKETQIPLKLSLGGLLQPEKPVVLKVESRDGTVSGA

CCCCC/C=C\C/C=C\C/C=C\C/C=C\CCCC(=O)O [Arachidonic acid, arachidonic acid]
role towards CYP2C9 (substrate / inhibitor / inducer) (CYP2C9): Inhibitor; also recorded: Substrate | role towards CYP1A1 (substrate / inhibitor / inducer) (CYP1A1): Inhibitor | role towards CYP2A6 (substrate / inhibitor / inducer) (CYP2A6): Substrate | role towards CYP4F8 (substrate / inhibitor / inducer) (CYP4F8): Substrate | role towards CYP3A4 (substrate / inhibitor / inducer) (CYP3A4): Inhibitor; also recorded: Substrate | role towards CYP1A2 (substrate / inhibitor / inducer) (CYP1A2): Substrate; also recorded: Inhibitor | role towards CYP4A11 (substrate / inhibitor / inducer) (CYP4A11): Substrate | role towards CYP4B1 (substrate / inhibitor / inducer) (CYP4B1): Substrate
